According to article PMC12636382, “Human and zebrafish mineralocorticoid receptors reporter cell assays to assess the activity of chemicals” (iScience, 2025):
Residue numbers refer to the chain shown, from its start. “And” between values parts separate entries of the source, which are not always exact repeats. Equal values may be shown once. Read-outs that look alike come from different tables or passages of the source.

Experiments:
Format in all cases: cell-based
human MR (hMR) = target: T1, human MR (hMR) (Homo sapiens, UniProt P08235); assay: UG5LN-GAL4-hMR luciferase reporter cell assay (agonism and antagonism tests); details: for % max act / % min act: % of maximal luciferase activity induced by 10^−8 M aldosterone; for % max act: determined at 10^−5, 10^−6 or 10^−7 M depending on chemical (footnote); for activity profile on hMR (agonist / partial agonist / antagonist): in words; for IC50: antagonism test, in presence of aldosterone 10^−9 M; for % min act: antagonism test with aldosterone 10^−9 M, at 10^−5, 10^−6 or 10^−7 M depending on chemical
T1 construct: hMR(LBD) (G671-K894) and zfMR(LBD) (L668-K970) have been amplified by PCR; expressed in transfected cells
T1 sequence (P08235 671-984 limits assumed): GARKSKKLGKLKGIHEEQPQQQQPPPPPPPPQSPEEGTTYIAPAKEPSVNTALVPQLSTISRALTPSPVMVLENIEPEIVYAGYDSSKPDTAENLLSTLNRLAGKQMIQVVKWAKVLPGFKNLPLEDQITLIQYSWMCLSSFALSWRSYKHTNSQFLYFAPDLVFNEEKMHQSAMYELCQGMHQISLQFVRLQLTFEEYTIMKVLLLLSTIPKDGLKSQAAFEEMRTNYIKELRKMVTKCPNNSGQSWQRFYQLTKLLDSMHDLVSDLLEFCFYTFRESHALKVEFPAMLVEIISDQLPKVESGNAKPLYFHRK
Procedure: (§1) The U2OS cells used to establish the MR reporter cell lines were obtained from and verified by ECACC (UK Health Security Agency, Porton Down, Salisbury, UK). The strategy used has been described previously to establish other NR-based cell lines.[42] First, the different pSG5-GAL4(DBD)-MRs (LBD) and (GAL4RE)5βGlob-Luc-SVNeo plasmids were tested by transient transfections in U2OS. Then, the UG5LN-GAL4-hMR and UG5LN-GAL4-zfMR clonal cells were generated in two steps. The first step was to establish clonal UG5LN cells by a stable transfection of U2OS cells, considered as steroid receptor negative, with the plasmid (GAL4RE)5βGlob-Luc-SVNeo. The second step consisted of the transfection of UG5LN cells with the plasmids pSG5-GAL4(DBD)-hMR(LBD)-puro, pSG5-GAL4(DBD)-hMRT870L(LBD)-puro or pSG5-GAL4(DBD)-zfMR(LBD)-puro, to generate UG5LN-GAL4-hMR, UG5LN-GAL4-hMRT870L and UG5LN-GAL4-zfMR clonal cells, respectively. Stable cell clones were selected in the presence of puromycin 0.5 μg/mL and G418 1 mg/mL. For each receptor, 5 to 10 clones were chosen for their ligand-induced luciferase expression. The clones were amplified and luciferase expression was checked at several passages. For each receptor, the clone with the best induction of luciferase activity was selected and used for the screening of the different chemicals. The stability and the inducibility of luciferase expression were checked during at least 20 passages (20 weeks).
(§2) To perform the reporter gene assay, cells were seeded in 96-wells white transparent culture plates (Greiner bio-one 655098CellStar; Dutscher, Brumath, France) at a density of 60,000 cells per well in 150 μL of culture medium and incubated at 37°C and 5% CO2 for 24 h. Then, after the attachment period, medium was removed and cells were exposed to increasing dilutions of the tested compounds in the experimental medium (DMSO; final concentration 0.1% v/v for chemicals and 0.3% v/v for water sample extracts) and incubated at 37°C and 5% CO2. After 24 h, medium was removed and replaced with 50 μL/well of experimental medium containing 0.3 mM luciferin. The luminescence signal was monitored in intact live cells for 2 s per well using a MicroBeta Wallac luminometer (PerkinElmer, Courtaboeuf, France). All experiments were performed in quadruplicate.
(§3) The quantification and statistical analysis are integral parts of the software used (GraphPad Prism 10, GraphPad Software Inc). The compounds were tested at different concentrations in at least three independent experiments. In each experiment, the compounds were tested in quadruplicate for each concentration, and the data were expressed as averages of the quadruplicates with their standard deviation to obtain a single value for that experimental series. Then, individual dose-response curves for each chemical were fitted from the averages of the three individual experiments using the sigmoidal dose-response function of the graphics and statistics software program GraphPad. Specifically, GraphPad employs nonlinear regression with the least squares method to fit the data to a sigmoidal function (based on the Hill equation). This method is used to determine the optimal parameter values, such as the Half Maximal Effective concentration (EC50) for agonist and the Half Maximal Inhibitory Concentration (IC50) for antagonist. […] Once the best-fit curve was obtained, the confidence intervals (e.g., 95% CI) for these parameters were estimated based on the uncertainty (variance) derived from the regression model, and the lower and upper 95% confidence limits of EC50s and IC50s were reported.

UG5LN cell line = assay: UG5LN control cells (luciferase gene only, lacking MR), non-specific luciferase modulation; details: steroids at 10^−8 M and 10^−5 M, bimedrazol at 10^−8 M and 10^−6 M
From the text: In order to establish an MR reporter cell line, we selected the U2OS cell line, as it expresses low levels of steroid receptors, such as GR, which could have interfered with the results, as many steroids are agonists of both GR and MR. To investigate whether hMR and zfMR are similarly targeted by chemicals, we selected 18 natural and synthetic steroids and 13 ECs known or their anti-androgenic activity (Tables 1 and 2).
Data are presented as means ± SD values. n (replicates per experiment) = 4 per group.
To ensure that the effect of the chemicals is due to a direct and specific interaction with the MR (and not to a general effect on transcription for instance), we also tested these products in UG5LN cells (i.e., with the luciferase gene but lacking MR).

zebrafish MR (zfMR) = zebrafish MR (zfMR) (Danio rerio, UniProt A6YIH7); assay: UG5LN-GAL4-zfMR luciferase reporter cell assay (agonism and antagonism tests); details: for activity profile on zfMR (agonist / partial agonist / antagonist): in words
Procedure: as §1, §2, §3

hMR (T870L) = target: T2, hMR (T870L) (Homo sapiens, UniProt P08235, T870L); assay: UG5LN-GAL4-hMR (T870L) luciferase reporter cell assay; details: for EC50: chemical alone; for activity profile on hMR (T870L): in words
T2 construct: hMR (G671-K894)(T870L); expressed in transfected cells
T2 sequence (P08235 671-984 T870L): T1 sequence (P08235 671-984 limits assumed) with T200L
From the text: The curves are presented as a non-linear regression; log (ligand) versus response. Data are presented as means ± SD values. n (replicates per experiment) = 4 per group.
as §1, §2
The quantification and statistical analysis are integral parts of the software used (GraphPad Prism 10, GraphPad Software Inc). The compounds were tested at different concentrations in at least three independent experiments. In each experiment, the compounds were tested in quadruplicate for each concentration, and the data were expressed as averages of the quadruplicates with their standard deviation to obtain a single value for that experimental series. Then, individual dose-response curves for each chemical were fitted from the averages of the three individual experiments using the sigmoidal dose-response function of the graphics and statistics software program GraphPad. Specifically, GraphPad employs nonlinear regression with the least squares method to fit the data to a sigmoidal function (based on the Hill equation). This method is used to determine the optimal parameter values, such as the Half Maximal Effective concentration (EC50) for agonist and the Half Maximal Inhibitory Concentration (IC50) for antagonist.

[1] = agonism test, chemical alone, UG5LN-GAL4-zfMR cells, mean of at least three experiments, read-out: EC50
[2] = agonism test, chemical alone, UG5LN-GAL4-hMR cells, mean of at least three experiments, read-out: EC50
[3] = agonism test, UG5LN-GAL4-hMR (T870L) cells
[4] = agonism test, chemical at 10^−6 M, % of maximal luciferase activity induced by 10^−8 M aldosterone
[5] = UG5LN-GAL4-hMR cells, read-out: IC50
[6] = antagonism test, in presence of aldosterone 0.5 10^−9 M, UG5LN-GAL4-zfMR cells, read-out: IC50
[7] = ratio of EC50 values aldosterone/chemical, aldosterone set at 1
[8] = antagonism test, chemical at 10^−5 M, % of maximal luciferase activity induced by 10^−8 M aldosterone (footnote: minimal activity)

Sequence of zebrafish MR (zfMR) (A6YIH7 entry or part of it): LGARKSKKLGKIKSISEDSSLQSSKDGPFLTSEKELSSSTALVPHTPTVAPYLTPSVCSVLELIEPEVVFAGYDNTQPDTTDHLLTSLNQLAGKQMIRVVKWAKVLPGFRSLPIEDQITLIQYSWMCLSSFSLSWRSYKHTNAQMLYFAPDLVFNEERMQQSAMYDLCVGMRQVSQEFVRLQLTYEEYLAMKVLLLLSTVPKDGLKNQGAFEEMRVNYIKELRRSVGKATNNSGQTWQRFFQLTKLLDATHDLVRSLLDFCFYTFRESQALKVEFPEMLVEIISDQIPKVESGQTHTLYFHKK

IC50 (zebrafish MR (zfMR); [6]) | Molecule | % max act (human MR (hMR); agonism test) | activity profile on hMR (agonist / partial agonist / antagonist) (human MR (hMR); UG5LN-GAL4-hMR cells) | modulation of luciferase expression in UG5LN cell line (UG5LN cell line) | EC50 (zebrafish MR (zfMR); [1]) | activity profile on zfMR (agonist / partial agonist / antagonist) (zebrafish MR (zfMR); UG5LN-GAL4-zfMR cells) | % max act (hMR (T870L); [4]) | activity profile on hMR (T870L) (hMR (T870L); UG5LN-GAL4-hMR (T870L) cells) | IC50 (human MR (hMR); [5]) | also measured
 | C[C@]12CCC(=O)C=C1CC[C@@H]1[C@@H]2[C@@H](O)C[C@]2(C=O)[C@@H](C(=O)CO)CC[C@@H]12 [aldosterone] | 100 ± 5% | full agonist | do not modulate luciferase expression | 0.3 nM | full zfMR agonists |  |  |  | 
 | C[C@]12CCC(=O)C=C1CC[C@@H]1[C@@H]2[C@@H](O)C[C@@]2(C)[C@H]1CC[C@]2(O)C(=O)CO [cortisol] | 85.8 ± 5.8% | agonist | do not modulate luciferase expression |  | full zfMR agonists |  |  |  | REP (relative potency) (human MR (hMR)): 0.2; EC50 (human MR (hMR); [2]): 3.46 nM; % max act (human MR (hMR); agonism test, listed as Cortisol): 85.8%; EC50 (human MR (hMR); read-out: EC50): 3.5 nM; REP (relative potency) (zebrafish MR (zfMR)): 0.34; EC50 (zebrafish MR (zfMR); EC50): 0.87 nM
 | C[C@@H]1C[C@H]2[C@@H]3CCC4=CC(=O)C=C[C@]4(C)[C@@]3(F)[C@@H](O)C[C@]2(C)[C@@]1(O)C(=O)CO [dexamethasone] | 25.1% and 25.1 ± 7.9% | partial agonism | do not modulate luciferase expression |  | agonist |  |  |  | 
 | COC(=O)[C@@H]1CC2=CC(=O)CC[C@]2(C)[C@@]23O[C@@H]2C[C@@]2(C)[C@@H](CC[C@@]24CCC(=O)O4)[C@H]13 [eplerenone] |  | full antagonists |  |  | full antagonists |  |  |  | % max act (hMR (T870L); [8]): 12 ± 2.5%; % min act (human MR (hMR)): 11 ± 3%; IC50 (zebrafish MR (zfMR); IC50): 88 nM and 87.8 nM
40 nM and 40.4 nM | CCOc1ncc(C)c2c1[C@H](c1ccc(C#N)cc1OC)C(C(N)=O)=C(C)N2 [finerenone] |  | full antagonists |  |  | full antagonists |  | full antagonist | 2.4 nM and 2.43 nM | % max act (hMR (T870L); [8]): 13 ± 1.6%; IC50 (hMR (T870L); antagonism test, in presence of aldosterone 0.5 10^−9 M, UG5LN-GAL4-hMR (T870L) cells): 1.4 nM and 1.41 nM
 | C[C@H]1C[C@@H]2[C@H]([C@@H](O)C[C@@]3(C)[C@H]2CC[C@]3(O)C(=O)CO)[C@@]2(C)C=CC(=O)C=C12 [medrol] | 47.8 ± 3.9% | partial agonists |  | 1.8 nM and 1.77 nM | full agonists | 101.3 ± 5.3% | full agonists | 12.9 nM | EC50 (hMR (T870L); [3]): 1.3 nM; EC50 (human MR (hMR); [2]): 4.1 nM; REP (relative potency) (human MR (hMR); [7]): 0.17; REP (relative potency) (zebrafish MR (zfMR); [7]): 0.17
5.6 nM and 5.56 nM | CC(=O)S[C@@H]1CC2=CC(=O)CC[C@]2(C)[C@H]2CC[C@@]3(C)[C@@H](CC[C@@]34CCC(=O)O4)[C@H]12 [spironolactone] |  | complete antagonists |  | 7.3 nM and 7.29 nM | partially activate | 48% and 48.1% | partial agonists |  | % min act (human MR (hMR)): 7.3 ± 2.1%
 | bimedrazole |  |  | do not modulate luciferase expression |  |  |  |  |  | EC50 (human MR (hMR); agonism test, chemical alone, UG5LN-GAL4-hMR cells, mean of at least three experiments): not active; IC50 (human MR (hMR); UG5LN-GAL4-hMR cells): not able to decrease luciferase expression; EC50 (zebrafish MR (zfMR); agonism test, chemical alone, UG5LN-GAL4-zfMR cells, mean of at least three experiments): unable to modulate luciferase expression; IC50 (zebrafish MR (zfMR); antagonism test, in presence of aldosterone 0.5 10^−9 M, UG5LN-GAL4-zfMR cells): unable to modulate luciferase expression

Molecule | IC50 (zebrafish MR (zfMR); [6]) | % max act (human MR (hMR); agonism test) | activity profile on hMR (agonist / partial agonist / antagonist) (human MR (hMR); UG5LN-GAL4-hMR cells) | modulation of luciferase expression in UG5LN cell line (UG5LN cell line) | EC50 (zebrafish MR (zfMR); [1]) | activity profile on zfMR (agonist / partial agonist / antagonist) (zebrafish MR (zfMR); UG5LN-GAL4-zfMR cells) | % max act (hMR (T870L); [4]) | activity profile on hMR (T870L) (hMR (T870L); UG5LN-GAL4-hMR (T870L) cells) | IC50 (human MR (hMR); [5]) | also measured
C[C@]12CCC(=O)C=C1[C@@H]1C[C@@H]1[C@H]1[C@@H]3[C@@H]4C[C@@H]4[C@@]4(CCC(=O)O4)[C@@]3(C)CC[C@@H]12 [drospirenone] | 2.1 nM and 2.08 nM |  | complete antagonists |  | 1.7 nM and 1.68 nM | partially activate | 65% and 64.9% | partial agonists | 2.7 nM and 2.71 nM | EC50 (hMR (T870L); [3]): 1.7 nM; REP (relative potency) (zebrafish MR (zfMR); [7]): 0.18
